In US7888395B2, “STAT3 phosphorylation inhibitor and notch1 expression inhibitor” (Meiji Dairies Corporation, priority 2004, dated 2011):

Experiments:
HES5 = assay: Gene expression test, RT-PCR analysis of HES5; type: cell-based, mouse, rat; settings: treated relative to untreated cells, normalized toward GAPDH
Method: (§1) In ethanol, 2,4,4-trimethyl-3-(15-hydroxypentadecyl)-2-cyclohexen-1-one synthesized by the method described in JP-A-2000-297034 was dissolved to give a concentration of 10^−2 M. The solution was added to a culture solution in a desirable concentration to be final dilution of 1 μl/ml. At different times and different periods in cell culture, 2,4,4-trimethyl-3-(15-hydroxypentadecyl)-2-cyclohexen-1-one was added. […] Each experiment was repeated at least three times.
(§2) Protocol was adapted from Grandbarbe et al., Development (2003) 130, 1393-1402. When briefly explained, as described in Tropepe et al., Dev. Biol. (1999) 208, 166-188, primary neurospheres were prepared from telencephalon of wild-type embryo (E14.5) and were maintained as secondary neurospheres by continuous subculture in a serum-free medium (Reynolds and Weiss, Science (1992) 255, […]) containing 10 ng/ml EGF. After propagation for different times, 50 to 100 neurospheres were inoculated to a polyornithine (Sigma)-coated cover slip in the presence of 2 ng/ml EGF and 0.5% FBS and differentiated. […]
(§3) Typical cycle conditions were 94° C. for 30 seconds, 55° C. for 30 seconds, and 72° C. for 30 seconds except for HES-5 whose program was 94° C. for 30 seconds, 63° C. for 30 seconds, and 72° C. for 2 minutes. […] The relative amount of mRNA was quantitatively determined in accordance with BabyImager analysis and NIHimage 1.36.

[1] = system: Notch receptors (Notch 2 to 4); assay: Gene expression test, RT-PCR analysis of the other Notch receptors; type: cell-based, mouse, rat; settings: treated relative to untreated cells, normalized toward GAPDH
Method: as §1, §2, §3

[2] = system: 3T3 Ras transformed fibroblast; assay: Ex vivo test, tumor size after injection of 3T3 Ras transformed fibroblast into Swiss Nu/Nu mouse; type: in vivo; settings: cells pretreated 3 days, intraperitoneal on days 2, 8 and 15, FIG. 4
Method: In a test tube for 3 days, 3T3 Ras transformed fibroblast (derived from mouse) or 3T3 fibroblast (derived from mouse) was treated with applying 50 μl (10^−3 M) of 2,4,4-trimethyl-3-(15-hydroxypentadecyl)-2-cyclohexen-1-one. The cell ([…]) was again suspended in 400 μl of DMEM medium and 200 μl thereof was injected into 7 weeks-old Swiss Nu/Nu mouse (male) symmetrically. On second, eighth, and fifteenth days after injection, 2,4,4-trimethyl-3-(15-hydroxypentadecyl)-2-cyclohexen-1-one was intraperitoneally administrated into mouse.

[3] = system: 3T3 Ras transformed fibroblast; assay: In vitro test, neoplastic foci of 3T3 Ras transformed fibroblast; type: cell-based, mouse; settings: 10^−6M, compared with untreated cell, FIG. 3
Method: When 3T3 Ras transformed fibroblast was cultured in 10% FBS-containing DMEM medium for 3 days, appearance of “foci” is observed as compared with non-transformed cell strains.
Each of 3T3 Ras transformed fibroblast (derived from mouse) or 3T3 fibroblast (derived from mouse) each is cultured at a concentration of 10,000 cell/ml in 10% FBS-containing DMEM medium for 1 day.
Thereafter, each cell is treated with 10^−5M 2,4,4-trimethyl-3-(15-hydroxypentadecyl)-2-cyclohexen-1-one for 6 days.
3T3 Ras transformed fibroblast or 3T3 fibroblast is cultured at a concentration of 10,000 cell/ml in 5% FBS-containing DMEM medium which contains 0.625% agar (DIFCO) and 10^−6 M 2,4,4-trimethyl-3-(15-hydroxypentadecyl)-2-cyclohexen-1-one.
(§4) The fibroblast transformed with Ras was treated with 2,4,4-trimethyl-3-(15-hydroxypentadecyl)-2-cyclohexen-1-one (10^−6M) and then compared with the untreated cell. Non-transformed cell strains (treated and untreated) were used as controls.

STAT3 = assay: Western Blot of STAT3 phosphorylation; type: cell-based; settings: 10^−8 M solution, compared with control without compound, FIG. 2
Method: After preparation of 2,4,4-trimethyl-3-(15-hydroxypentadecyl)-2-cyclohexen-1-one solution (10^−8 M), Western Blot was performed using STAT3 and phosphorylated STAT3 antibody (STAT3 antibody derived from rabbit, manufactured by Cell Signaling) to confirm the action of 2,4,4-trimethyl-3-(15-hydroxypentadecyl)-2-cyclohexen-1-one on STAT3 phosphorylation.

Notch1 [4] = assay: Notch1 expression in cell strain transformed with Ras; type: cell-based, mouse; settings: fibroblast transformed with Ras, 10^−6M
Method: as §4

Notch1 [5] = assay: Gene expression test, RT-PCR analysis of Notch1; type: cell-based, mouse, rat; settings: treated relative to untreated cells, normalized toward GAPDH
Method: as §1, §2, §3

expression levels of the other Notch receptors (Notch 2 to 4) [1]: not changed
SMILES: CC1=C(CCCCCCCCCCCCCCCO)C(C)(C)CCC1=O [2,4,4-trimethyl-3-(15-hydroxypentadecyl)-2-cyclohexen-1-one]
levels of mRNA of HES5 (HES5): always decreased
tumor size [2]: reduced
neoplastic foci of the cell strain transformed with Ras [3]: reduced
STAT3 phosphorylation (band of P-STAT3) (STAT3): suppressed
Notch1 expression (Notch1 [4]): decrease
levels of mRNA of Notch1 (Notch1 [5]): always decreased
